Experimental data: PMC5843817, “Preclinical validations of [^18F]FPyPEGCBT-c(RGDfK): a ^18F-labelled RGD peptide prepared by ligation of 2-cyanobenzothiazole and 1,2-aminothiol to image angiogenesis” (EJNMMI Radiopharmacy and Chemistry, 2016)

How the values were obtained:
[1] = system: αVβ3, αVβ5 and α5β1 integrins on U-87 MG cancer cells; experiment: [^125I]echistatin displacement cell binding assay, U-87 MG; design: species or system human; settings: U-87 MG cells; displacement of [^125I]echistatin; 1 h, 37 °C
Protocol: (§1) In vitro integrin-binding of FPyPEGCBT-c(RGDfK) was evaluated using a standard displacement assay of [^125I]echistatin. U-87 MG and SKOV-3 cells were seeded in 96-well plates 24 h prior to the experiment (U-87 MG, 6 × 10^4 cells per well; SKOV-3, 3 × 10^4 cells per well). On the day of the experiment, the cells were washed twice with binding buffer (20 mM Tris pH 7.4, 150 mM NaCl, 2 mM CaCl2, 1 mM MgCl2, 1 mM MnCl2, 0.1 % BSA), then co-incubated for 1 h at 37 °C in binding buffer with 370 Bq/well [^125I]echistatin (Perkin Elmer, Schwerzenbach, Switzerland) and a concentration range (10^−9 to 10^−4 M) of FPyPEGCBT-c(RGDfK) or c(RGDfV) (PeptaNova, Sandhausen, Germany) as a reference peptide. Cells were then washed three times with binding buffer and lysed in 1 M NaOH. The cell-associated radioactivity was measured in a Wizard^2 2470 γ-counter (Perkin Elmer). The IC50 (Inhibitory Concentration of 50 %) values were calculated by fitting the data by nonlinear regression using GraphPad Prism (GraphPad software, La Jolla, CA, USA).
(§2) Fig. 2 Displacement of [^125I]echistatin by FPyPEGCBT-c(RGDfK). U-87 MG and SKOV-3 cancer cells were co-incubated for 1 h in 96-well plates with 370 Bq/well [^125I]echistatin and a concentration range (10^−9 to 10^−4 M) of FPyPEGCBT-c(RGDfK) or c(RGDfV). After lysis, the cell-associated radioactivity was measured in a γ-counter. […]

[2] = system: αVβ3, αVβ5 and α5β1 integrins on SKOV-3 cancer cells; experiment: [^125I]echistatin displacement cell binding assay, SKOV-3; design: species or system human; settings: SKOV-3 cells; displacement of [^125I]echistatin; 1 h, 37 °C
Protocol: as §1, §2

## c(RGDfV)
[1]
  IC50: 600 nM
[2]
  IC50: 259 ± 2 nM
